Measured values as given in patent publication EP1377579B1 (Aventis Pharmaceuticals Inc., priority 2000, dated 2002).
Counter-ions that a name gives are not always drawn.

Experiments:
cdk4/cyclin D1 = cdk4/cyclin D1 (Homo sapiens, UniProt P11802); assay: Cyclin-dependent kinase assay, cdk4/cyclin D1; assay type: biochemical; details: cyclin D1/cdk4; GST-pRb substrate, 10 µM ATP
MDA-MB-435 = assay: In vitro proliferation assay (MTT), MDA-MB-435; assay type: cell-based, human; details: Homo sapiens, MDA-MB-435, MTT assay; value (SD, n) where given; read-out: MB-435 Breast (IC50 µM)
Procedure, shortened: (§1)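 MTT viability, 3 d compound treatment; seeding 1000–2500 cells/well, overnight attachment; formazan in DMSO, A570; IC50 fitted from raw absorbance.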

NCI-H460 = assay: In vitro proliferation assay (MTT), NCI-H460; assay type: cell-based; details: Homo sapiens, NCI-H460; MTT assay; value (SD, n) where given; read-out: H-460 Lung (IC50 µM)
Method: (§2) The proliferation of tumor cells can be measured using a tetrazolium salt-based assay known as the MTT (3-[4,5-Dimethylthiazol-2-yl]-2,5-diphenyltetrazolium bromide) assay. The proliferation test is performed essentially as described by Carmichael et al., Cancer Res. 47: 936-942, 1987. For the assay, the cell lines are plated onto 96 well plates at 1000 to 2500 cells/well (depending on the properties of the individual cell lines), left to attach and recover overnight. […] After 3 days, the cells are incubated with MTT dye (3-[4,5-Dimethylthiazol-2-yl]-2,5-diphenyltetrazolium bromide, Sigma # M5655, 10 mg/ml in Hank's Buffered Saline) to estimate the amount of live cells remaining vs. concentration for the test compounds. Specifically, MTT solution is added to a final concentration of […] and the plates incubated at 37 C for 2 to 4 hr. The MTT and culture medium is then removed from the cultures and 200 µl of DMSO is added to solubilize the dye from the cell layer. The absorbance at 570 nm is determined for each culture using a Spectramax plate reader (Molecular Devices).
(§3) IC50s were determined from the raw data from either the MTT or SRB assays.
(§4) All of the cell lines were obtained from American Type Tissue Collection, with the ATCC accession number in parentheticals. MCF-7 and MDA-MB-231 cells were grown in improved minimum essential medium (Biofluids) without phenol red, supplemented with 5 % fetal bovine serum, 0.01 mg/ml gentamicin and 3 mM L-glutamine. All of the other cell lines were grown in RPMI 1640 medium (Life Technologies) supplemented with 5 % fetal bovine serum, 0.01 mg/ml gentamicin and 3 mM L-glutamine TABLE 3

PC-3 = assay: In vitro proliferation assay (MTT), PC-3; assay type: cell-based, human; details: Homo sapiens, PC-3, MTT assay; value (SD, n) where given; read-out: PC-3 Prostate (IC50 µM)
Procedure, shortened: as §1

Colo-205 = assay: In vitro proliferation assay (MTT), Colo-205; assay type: cell-based; details: Homo sapiens, COLO 205; MTT assay; value (SD, n) where given; read-out: Colo-205 Colon (IC50 µM)
Method: as §2, §3

cdk1/cyclin B = cdk1/cyclin B (Homo sapiens, UniProt P06493); assay: Cyclin-dependent kinase assay, cdk1/cyclin B; details: CDK1 IC50, nM, Histone H1, 10 µM ATP
Chain of cdk1/cyclin B (P06493 whole entry): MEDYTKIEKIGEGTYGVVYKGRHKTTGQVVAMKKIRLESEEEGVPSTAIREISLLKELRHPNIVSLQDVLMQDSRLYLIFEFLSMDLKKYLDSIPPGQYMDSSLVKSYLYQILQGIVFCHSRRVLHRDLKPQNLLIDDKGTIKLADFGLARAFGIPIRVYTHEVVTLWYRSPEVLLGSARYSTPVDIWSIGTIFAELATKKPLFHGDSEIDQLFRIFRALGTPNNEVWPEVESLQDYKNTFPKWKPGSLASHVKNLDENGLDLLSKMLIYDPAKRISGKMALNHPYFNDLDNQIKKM
Chain of cdk1/cyclin B (P14635 whole entry partner): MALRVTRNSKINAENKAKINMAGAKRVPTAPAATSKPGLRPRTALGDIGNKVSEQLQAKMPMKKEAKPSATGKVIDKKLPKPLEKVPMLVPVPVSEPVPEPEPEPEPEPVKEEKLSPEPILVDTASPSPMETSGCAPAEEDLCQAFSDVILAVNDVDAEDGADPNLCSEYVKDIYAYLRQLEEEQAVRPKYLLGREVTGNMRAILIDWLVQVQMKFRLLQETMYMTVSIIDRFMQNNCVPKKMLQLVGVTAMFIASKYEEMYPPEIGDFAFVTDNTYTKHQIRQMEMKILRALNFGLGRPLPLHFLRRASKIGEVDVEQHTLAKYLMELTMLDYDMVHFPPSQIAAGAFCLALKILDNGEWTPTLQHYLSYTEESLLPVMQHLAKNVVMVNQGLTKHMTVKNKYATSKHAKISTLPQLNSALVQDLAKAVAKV
Method: The IC50 values for cdk1/cyclin B, cdk2/cyclin E, and cdk4/cyclin D1 inhibition are determined using the following methods: • The cdk1 sequence (accession number Y00272) is amplified by PCR and cloned into the BamHI and SalI sites of pFASTBAC1 (Life Technologies).
The cyclin B1 sequence (accession number M25753) is amplified by PCR and cloned into the BamHI and SalI sites of pFASTBAC1 (Life Technologies).
The insect cell (Sf9) expression is optimized for each of the CDK/cyclin pairs according to the manufacturer's protocols (Life Technologies). For cdk4-HA/cyclin D1-His6 an infection of 0.1 multiplicity of infection (MOI) for 48 hours gives the best expression levels of the complex as well as activity.
(§5) The viruses are added to the cells and the culture is incubated at 27°C for the desired time. The cells are harvested by centrifugation at 3000 rpm for 10 minutes. The cells are snap frozen on dry ice and stored at - 80°C.
(§6) Cell extracts are made following a standard procedure. The cell pellet is resuspended in lysis buffer (50 mM HEPES, pH 8.0, 10 mM MgCl2, 1 mM DTT, 2.5 mM EGTA, 1 mM EDTA, 10 mM β-glycerophosphate, 1 mM sodium vanadate, 1 mM sodium fluoride, 1 x Protease inhibitor cocktail). The cells are lysed using the microfluidizer (Microfluidics) for 20 minutes. Cell debris is removed by centrifugation at 100,000 x g. The cell extracts are aliquoted in 1 ml aliquots, frozen on dry ice, and stored at -80°C.
The kinase reactions are performed following a standard procedure. The enzyme and inhibitor are diluted in kinase buffer (50 mM HEPES, pH 8.0, 10 mM MgCl2, 2.5 mM EGTA, 10 mM β-glycerophosphate, 1 mM sodium vanadate, 1 mM sodium fluoride, and 1 mM DTT) and pre-incubated for 30 minutes. […] The cdk1 enzyme activity is assayed using Histone H1 (Sigma) in the presence of 10 µM ATP for 30 min at room temperature. The reactions are terminated by the addition of 50 µL of 10 mM cold ATP to stop the reactions. The reactions are transferred to a pre-soaked 96-well multi-screen plate containing 30 µL of 100% TCA per well. After incubation for one hour at room temperature, the plates are washed twice with 200 µl of 20% TCA, followed by 200 µl of 10% TCA and finally with 200 µl of 5% TCA. After drying the plates at room temperature, the filter plates are placed in adapter plates (Packard) and 40 µl of Microscint-O® (Packard) is added to each well. Top Seal A film is used to cover the plates before counting in a Top Count Scintillation Counter.
The % remained activity of the indicated Cdk/cyclin kinase complex in the presence of inhibitor is calculated by the ratio of cpm in the presence of inhibitor to cpm in the absence of inhibitor (%Activity = vi/vo x 100%).

cdk2/cyclin E = cdk2/cyclin E (Homo sapiens, UniProt P24941); assay: Cyclin-dependent kinase assay, cdk2/cyclin E; details: CDK2 IC50, nM, GST-pRb substrate, 10 µM ATP
Method: The insect cell (Sf9) expression is optimized for each of the CDK/cyclin pairs according to the manufacturer's protocols (Life Technologies).
as §5, §6
The kinase reactions are performed following a standard procedure. The enzyme and inhibitor are diluted in kinase buffer (50 mM HEPES, pH 8.0, 10 mM MgCl2, 2.5 mM EGTA, 10 mM β-glycerophosphate, 1 mM sodium vanadate, 1 mM sodium fluoride, and 1 mM DTT) and pre-incubated for 30 minutes. The cdk2 and cdk4 enzyme activities are assayed using 500 ng of the GST-pRb substrate (see description below) in the presence of 10 µM cold ATP and 1 µCi of [γ-^33P] ATP for 30 minutes at room temperature. […] The reactions are terminated by the addition of 50 µL of 10 mM cold ATP to stop the reactions. The reactions are transferred to a pre-soaked 96-well multi-screen plate containing 30 µL of 100% TCA per well. After incubation for one hour at room temperature, the plates are washed twice with 200 µl of 20% TCA, followed by 200 µl of 10% TCA and finally with 200 µl of 5% TCA. After drying the plates at room temperature, the filter plates are placed in adapter plates (Packard) and 40 µl of Microscint-O® (Packard) is added to each well.

HL-60 = assay: In vitro proliferation assay (MTT), HL-60; assay type: cell-based; details: Homo sapiens, HL-60; MTT assay; value (SD, n) where given; read-out: HL-60 Leuk. (IC50 µM)
Method: as §2, §3, §4

Jurkat = assay: In vitro proliferation assay (MTT), Jurkat; assay type: cell-based; details: Homo sapiens, MTT assay, value (SD, n) where given, read-out: Jurkat Leuk. (IC50 µM)
Method: as §2, §3, §4

Chain of cdk4/cyclin D1 (P11802 whole entry): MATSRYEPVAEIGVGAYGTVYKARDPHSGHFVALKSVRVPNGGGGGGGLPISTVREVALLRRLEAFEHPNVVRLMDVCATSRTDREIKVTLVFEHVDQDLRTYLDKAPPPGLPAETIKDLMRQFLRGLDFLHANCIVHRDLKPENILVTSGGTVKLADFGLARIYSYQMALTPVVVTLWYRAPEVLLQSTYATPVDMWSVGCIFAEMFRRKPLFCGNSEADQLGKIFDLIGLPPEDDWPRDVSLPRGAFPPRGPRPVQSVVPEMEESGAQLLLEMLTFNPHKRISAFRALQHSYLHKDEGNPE
Chain of cdk4/cyclin D1 (P24385 whole entry partner): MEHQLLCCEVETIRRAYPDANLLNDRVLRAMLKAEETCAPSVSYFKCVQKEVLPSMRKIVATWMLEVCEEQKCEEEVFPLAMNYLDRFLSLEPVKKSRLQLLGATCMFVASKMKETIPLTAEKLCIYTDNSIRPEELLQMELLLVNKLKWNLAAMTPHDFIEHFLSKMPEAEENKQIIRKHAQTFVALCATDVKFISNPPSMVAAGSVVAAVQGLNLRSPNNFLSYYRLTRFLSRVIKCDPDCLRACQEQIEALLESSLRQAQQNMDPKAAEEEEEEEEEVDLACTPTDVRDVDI

Row | SMILES | IC50 (cdk4/cyclin D1) | IC50 (MDA-MB-435) | IC50 (NCI-H460) | IC50 (PC-3) | IC50 (Colo-205) | IC50 (cdk1/cyclin B) | IC50 (cdk2/cyclin E) | IC50 (HL-60) | IC50 (Jurkat)
1 | N[C@H]1CC[C@H](Nc2nc(NC3CCN(C(=O)COc4ccccc4)CC3)c3ncn(C4CCCC4)c3n2)CC1 [compound 28, trans-1-{4-[2-(4-Amino-cyclohexylamino)-9-cyclopentyl-9H-purin-6-ylamino]-piperidin-1-yl}-2-phenoxy-ethanone dihydrochloride] | 140 nM | 0.21 µM | 0.21 µM | 0.22 µM | 0.09 µM | 20 nM | 52 nM |  | 
2 | N[C@H]1CC[C@H](Nc2nc(NC3CCN(C(=O)COc4ccc(Cl)cc4)CC3)c3ncn(C4CCCC4)c3n2)CC1 [compound 31, trans-1-{4-[2-(4-Amino-cyclohexylamino)-9-cyclopentyl-9H-purin-6-ylamino]-piperidin-1-yl}-2-(4-chloro-phenoxy)-ethanone dihydrochloride] | 2040 nM | 0.17 µM | 0.19 µM | 0.16 µM | 0.04 µM | 105 nM | 5 nM |  | 
3 | N[C@H]1CC[C@H](Nc2nc(NC3CCN(C(=O)CCc4ccccc4)CC3)c3ncn(C4CCCC4)c3n2)CC1 [compound 33, trans 1-{4-[2-(4-Amino-cyclohexylamino)-9-cyclopentyl-9H-purin-6-ylamino]-piperidin-1-yl}-3-phenyl-propan-1-one dihydrochloride] | 427 nM | 0.26 µM | 0.24 µM | 0.33 µM | 0.07 µM | 58 nM | 30 nM |  | 
4 | N[C@H]1CC[C@H](Nc2nc(NC3CCN(C(=O)COCc4ccccc4)CC3)c3ncn(C4CCCC4)c3n2)CC1 [compound 37, trans-1-{4-[2-(4-Amino-cyclohexylamino)-9-cyclopentyl-9H-purin-6-ylamino]-piperidin-1-yl}-2-benzyloxy-ethanone dihydrochloride] | 1700 nM | 0.26 µM | 0.23 µM | 0.2 µM | < 0.02 µM | 15 nM | 32 nM |  | 
5 | N[C@H]1CC[C@H](Nc2nc(NC3CCN(C(=O)CSc4ccccc4)CC3)c3ncn(C4CCCC4)c3n2)CC1 [compound 46, trans-1-{4-[2-(4-Amino-cyclohexylamino)-9-cyclopentyl-9H-purin-6-ylamino]-piperidin-1-yl}-2-phenylsulfanylethanone dihydrochloride] | 709 nM | 0.17 µM | 0.17 µM | 0.19 µM | 0.06 µM | 153 nM | 55 nM |  | 
6 | N[C@H]1CC[C@H](Nc2nc(NC3CCN(C(=O)C4CCC4)CC3)c3ncn(C4CCCC4)c3n2)CC1 [compound 63, trans-1-{4-[2-(4-Amino-cyclohexylamino)-9-cyclopentyl-9H-purin-6-ylamino]-piperidin-1-yl}-1-cyclobutyl-methanone dihydrochloride] | 441 nM | 0.17 µM | 0.24 µM | 0.21 µM | 0.16 µM | 23 nM | 66 nM |  | 
7 | N[C@H]1CC[C@H](Nc2nc(NC3CCN(S(=O)(=O)c4ccccc4)CC3)c3ncn(C4CCCC4)c3n2)CC1 [compound 105, trans-N^2-(4-Amino-cyclohexyl)-N^6-(1-benzenesulfonyl-piperidin-4-yl)-9-cyclopentyl-9H-purine-2,6-diamine dihydrochloride] | 69 nM | 0.18 µM | 0.29 µM | 0.5 µM | 0.21 µM | 7 nM | 8 nM |  | 
8 | CC1(C)C2CCC1(CS(=O)(=O)N1CCC(Nc3nc(N[C@H]4CC[C@H](N)CC4)nc4c3ncn4C3CCCC3)CC1)C(=O)C2 (stereo partly drawn) [compound 107, trans-1-{4-[2-(4-Amino-cyclohexylamino)-9-cyclopentyl-9H-purin-6-ylamino]-piperidine-1-sulfonylmethyl}-7,7-dimethyl-bicyclo[2.2.1]heptan-2-one dihydrochloride] | 10 nM | 0.11 µM | 0.29 µM | 0.41 µM | 0.18 µM | 250 nM | 35 nM |  | 
9 | N[C@H]1CC[C@H](Nc2nc(NC3CCN(S(=O)(=O)c4ccc(Cl)cc4)CC3)c3ncn(C4CCCC4)c3n2)CC1 [compound 108, trans-N -(4-Amino-cyclohexyl)-9-cyclopentyl-N^6-[1-(4-chloro-benzenesulfonyl)-piperidin-4-yl]-9H-purine-2,6-diamine dihydrochloride] | 170 nM | 0.14 µM | 0.29 µM | 0.43 µM | 0.18 µM | 7 nM | 10 nM |  | 
10 | Cc1noc(C)c1S(=O)(=O)N1CCC(Nc2nc(N[C@H]3CC[C@H](N)CC3)nc3c2ncn3C2CCCC2)CC1 [compound 110, trans-N^2-(4-Amino-cyclohexyl)-9-cyclopentyl-N^6-[1-(3,5-dimethyl-isoxazole-4-sulfonyl)-piperidin-4-yl]-9H-purine-2,6-diamine dihydrochloride] | 158 nM | 0.44 µM | 0.65 µM | 0.76 µM | 0.25 µM | 27 nM | 9 nM |  | 
11 | N[C@H]1CC[C@H](Nc2nc(NC3CCN(S(=O)(=O)c4cc(Cl)cc(Cl)c4O)CC3)c3ncn(C4CCCC4)c3n2)CC1 [compound 117, trans-2-{4-[2-(4-Amino-cyclohexylamino)-9-cyclopentyl-9H-purin-6-ylamino]-piperidine-1-sulfonyl}-4,6-dichloro-phenol dihydrochloride] | 558 nM | 39 µM |  | 34.1 µM |  | 290 nM | 31 nM | 24.2 µM | 43.6 µM
12 | N[C@H]1CC[C@H](Nc2nc(NC3CCN(S(=O)(=O)c4ccc([N+](=O)[O-])cc4)CC3)c3ncn(C4CCCC4)c3n2)CC1 [compound 120, trans-N^2-(4-Amino-cyclohexyl)-9-cyclopentyl-N^6-[1-(4-nitro-benzenesulfonyl)-piperidin-4-yl]-9H-purine-2,6-diamine dihydrochloride] |  | 0.2 µM | 0.27 µM | 0.22 µM | 0.1 µM |  |  | < 0.02 µM | 0.19 µM
13 | N[C@H]1CC[C@H](Nc2nc(NC3CCN(C(=O)Nc4ccc(F)cc4F)CC3)c3ncn(C4CCCC4)c3n2)CC1 [compound 166, trans-4-[2-(4-Amino-cyclohexylamino)-9-cyclopentyl-9H-purin-6-ylamino]-piperidine-1-carboxylic acid (2,4-difluoro-phenyl)-amide dihydrochloride] |  | 0.03 µM | 0.08 µM | 0.06 µM | 0.02 µM |  |  | 0.01 µM | 0.07 µM
14 | N[C@H]1CC[C@H](Nc2nc(NC3CCN(C(=O)Nc4ccccc4Br)CC3)c3ncn(C4CCCC4)c3n2)CC1 [compound 168, trans-4-[2-(4-Amino-cyclohexylamino)-9-cyclopentyl-9H-purin-6-ylamino]-piperidine-1-carboxylic acid (2-bromo-phenyl)-amide dihydrochloride] | 111 nM | 0.15 µM | 0.19 µM | 0.19 µM | 0.16 µM | 29 nM | 52 nM | 0.04 µM | 
